From the NIST ThermoML archive (doi:10.1016/j.jct.2009.10.007)

Assays:
[1] = mn = molality of the nth substance listed, in mol/kg; conditions: 101 kPa, Liquid; for mass density: Vibrating tube method; for speed of sound: Sing-around technique in a fixed-path interferometer
[2] = refractive index (Na D-line) (dimensionless); mn = molality of the nth substance listed, in mol/kg; conditions: 308.15 K, 101 kPa, Liquid, Standard Abbe refractometry

CCCCn1cc[n+](C)c1.[Br-] [1-butyl-3-methylimidazolium bromide] + O
[1]
Conditions | mass density, 298.15 K [kg/m3] | mass density, 303.15 K [kg/m3] | mass density, 308.15 K [kg/m3] | speed of sound, 303.15 K [m/s] | speed of sound, 308.15 K [m/s]
m1 = 0.0183 | – | 996.538 | 994.913 | 1511 | 1521.5
m1 = 0.0274 | – | 996.983 | 995.351 | 1511.8 | 1522.2
m1 = 0.0367 | – | 997.432 | 995.796 | 1512.6 | 1523
m1 = 0.0459 | – | 997.878 | 996.238 | 1513.4 | 1523.7
m1 = 0.0692 | – | 999.002 | 997.347 | 1515.5 | 1525.6
m1 = 0.0932 | – | 1000.15 | 998.48 | 1517.5 | 1527.4
m1 = 0.1164 | – | 1001.24 | 999.565 | 1519.5 | 1529.3
m1 = 0.141 | 1003.88 | 1002.4 | 1000.71 | 1521.7 | 1531.2
m1 = 0.1652 | 1005.02 | 1003.53 | 1001.83 | 1523.7 | 1533.1
m1 = 0.1863 | 1006.01 | 1004.51 | 1002.79 | 1525.5 | 1534.7
m1 = 0.2114 | 1007.19 | 1005.67 | 1003.94 | 1527.6 | 1536.6
m1 = 0.2376 | 1008.4 | 1006.87 | 1005.13 | 1529.7 | 1538.5
m1 = 0.2632 | 1009.58 | 1008.03 | 1006.28 | 1531.8 | 1540.4
m1 = 0.2831 | 1010.49 | 1008.93 | 1007.17 | 1533.4 | 1541.8

[2]
Conditions | refractive index
m1 = 0.0096 | 1.3326
m1 = 0.02 | 1.3343
m1 = 0.0298 | 1.3358
m1 = 0.0348 | 1.3366
m1 = 0.0398 | 1.3375
m1 = 0.05 | 1.339
m1 = 0.0548 | 1.3397
m1 = 0.0598 | 1.3405
m1 = 0.0689 | 1.3419
m1 = 0.082 | 1.3439
m1 = 0.0854 | 1.3444
m1 = 0.0896 | 1.3451
m1 = 0.1 | 1.3466
m1 = 0.1192 | 1.3497
